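How tested: cells in 96-well plates exposed to compound for 48 hours at five concentrations. At the TGI there is no net growth.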

TGI data for 11 molecules are collected here from PubChem BioAssay (NCI).

Holding throughout (assay): NCI anticancer screen, dose series, 48 h
The test system of test [1] is MCF7 breast.
The test system of test [2] is SR leukemia.
Test [3] concerns NCI-H522 lung.
The test system of test [4] is M14 melanoma.
For test [5], the system named is NCI-H226 lung.
The test system of test [6] is SK-MEL-28 melanoma.
Test [7] deals with UO-31 renal.
Test [8] deals with MDA-MB-435.
Test [9] has as its system SF-539 CNS.
The subject of test [10] is IGROV1 ovarian.
Test [11] has as its system SF-295 CNS.
The test system of test [12] is SNB-75 CNS.
Test [13] has as its system SK-MEL-2 melanoma.
The test system of test [14] is OVCAR-3 ovarian.
Test [15] concerns COLO 205 colon.
Test [16] concerns LOX IMVI melanoma.
For test [17], the system named is RPMI-8226 leukemia.
The test system of test [18] is UACC-257 melanoma.
The test system of test [19] is CAKI-1 renal.
Test [20] has as its system 786-0 renal.

Turning to `CNC1C(O)C(NC)C2OC3(O)C(=O)CC(C)OC3OC2C1O` (stereo not given), the TGI in [1], in test [2], in [3], in test [4], in test [5] and in [6] was greater than 100 µM in each case. Also, the TGI in test [7], in test [8], in test [9], in [10], in [11] and in test [12] was greater than 100 µM throughout. Also, the TGI in [13], in test [14], in test [15], in test [16], in [17] and in test [18] was greater than 100 µM each time. For the same molecule, the TGI in [19] and in test [20] was greater than 100 µM each time.

`Cc1cc(N)ccc1N=Nc1ccc(S(=O)(=O)CCOS(=O)(=O)O)cc1`: the TGI was 11.8 µM in test [1]; greater than 100 µM in test [2]; 0.773 µM in test [3]; 18.4 µM in test [4]; 15.6 µM in [5]; 19 µM in [6]. The TGI worked out at 8.63 µM in test [7]; 0.502 µM in test [8]; 6.9 µM in test [9]; 13.9 µM in test [10]; 9.21 µM in [11]; 19.8 µM in test [12]. In addition, the TGI in test [13] is 3.89 µM; in test [14] it was 9.55 µM; in [15], 6.08 µM; in test [16], 2.97 µM; in test [17], greater than 45.4 µM; in test [18], 24.3 µM. For the same molecule, the TGI in [19] amounted to 8.61 µM; in [20], 6.55 µM.

For the molecule `Cc1ccccc1N=CN(C)C`, the TGI in test [1] is greater than 100 µM; in test [2], greater than 100 µM; in test [3], 94.2 µM; in [4] it was greater than 100 µM; in test [5] it was greater than 100 µM; in [6], greater than 100 µM. For the same molecule, the TGI in test [7], in [8], in [9], in [10], in test [11] and in test [12] was greater than 100 µM in each case. Further, the TGI in test [13] is greater than 100 µM; in [14] it was 81.2 µM; in test [15], greater than 100 µM; in [16], greater than 100 µM; in test [17], 58.2 µM; in test [18], 71.1 µM. Besides, the TGI in test [19] and in [20] was greater than 100 µM each time.

Regarding `CN(C)CC1CCCC(CN2CCCCC2)C1=O` (stereo not given), the TGI in [1] was 2.62 µM; in test [2], greater than 100 µM; in test [3] it was 0.204 µM; in test [4], 18.7 µM; in [5], 43.1 µM; in [6] it was 27.6 µM. Also, the TGI in test [7] was 26.7 µM; in [8] it was 31.1 µM; in [9], 33.6 µM; in test [10] it was 35.5 µM; in test [11], greater than 100 µM; in test [12], 43.2 µM. The TGI in [13] turned out to be 31.1 µM; in [14], 17.1 µM; in test [15] it was 7.03 µM; in test [16] it was 18.3 µM; in test [17], 1.29 µM; in test [18], 30.8 µM. The TGI in test [19] amounted to 3.73 µM; in test [20] it was 6.07 µM.

Regarding `CN(C)CCCNC(=O)c1cc(NC(=O)c2cc(NS(=O)(=O)c3ccc4c(c3)C(=O)c3ccccc3C4=O)cn2C)cn1C`, the TGI in test [1], in test [2], in test [3], in [4], in test [5] and in test [6] was greater than 100 µM throughout. The TGI in test [7], in [8], in [9], in test [10], in test [11] and in [12] was greater than 100 µM throughout. For the same molecule, the TGI in test [13], in [14], in test [15], in test [16], in [17] and in [18] was greater than 100 µM throughout. The TGI in test [19] and in test [20] was greater than 100 µM each time.

`Cc1c(-c2ccccc2)[nH]c2ccc(Cl)cc2c1=O`: the TGI in [1], in test [2], in test [3], in test [4], in test [5] and in test [6] was greater than 100 µM throughout. Further, the TGI was 0.507 µM in test [7]; 57.3 µM in test [8]; 42.9 µM in test [9]; greater than 100 µM in test [10]; greater than 100 µM in test [11]; 95.2 µM in test [12]. Also, the TGI in [13] was 87 µM; in test [14], 72 µM; in test [15], greater than 100 µM; in [16], greater than 100 µM; in test [17], greater than 100 µM; in test [18], greater than 100 µM. Moreover, the TGI in test [19] is 3.82 µM; in [20] it was greater than 100 µM.

Regarding `Nc1ccc(Oc2ccc(C3(c4ccc(Oc5ccc(N)cc5)cc4)C4CC5C6CC7CC5C3C(C7)C6C4)cc2)cc1`, the TGI in [1], in test [2], in test [3], in test [4], in test [5] and in test [6] was greater than 100 µM each time. Besides, the TGI was greater than 100 µM in test [7]; 82.9 µM in test [8]; greater than 100 µM in test [9]; greater than 100 µM in [10]; greater than 100 µM in [11]; greater than 100 µM in test [12]. The TGI in [13] was greater than 100 µM; in [14], greater than 100 µM; in [15], greater than 100 µM; in [16] it was greater than 66.4 µM; in test [17] it was greater than 100 µM; in test [18], greater than 100 µM. Besides, the TGI in test [19] and in test [20] was greater than 100 µM in each case.

Take `C=CCc1c(C)nc(C)nc1N/N=C/C=C/c1ccccc1`: the TGI was 65.3 µM in test [1]; 57.3 µM in [2]; greater than 100 µM in [3]; greater than 100 µM in test [4]; greater than 100 µM in test [5]; greater than 100 µM in test [6]. Further, the TGI in [7] was greater than 100 µM; in test [8], greater than 100 µM; in [9], greater than 100 µM; in [10], greater than 100 µM; in [11] it was 52.9 µM; in test [12], 91.6 µM. The TGI in test [13] was greater than 100 µM; in [14], 53.3 µM; in test [15], greater than 100 µM; in test [16], greater than 100 µM; in test [17], 74.9 µM; in test [18], 48.9 µM. Further, the TGI in [19] and in test [20] was greater than 100 µM each time.

As to `COC(=O)C(Cc1ccccc1)NC(=O)C(CCC(=O)OCc1ccccc1)NC(=O)OC(C)(C)C` (stereo not given), the TGI in test [1], in test [2], in [3], in test [4], in test [5] and in [6] was greater than 100 µM in each case. Further, the TGI in test [7], in test [8], in test [9], in test [10], in test [11] and in [12] was greater than 100 µM each time. The TGI in [13], in [14], in test [15], in test [16], in test [17] and in test [18] was greater than 100 µM each time. Moreover, the TGI in test [19] and in test [20] was greater than 100 µM in each case.

As to `O=C(NCCc1ccccc1)[C@H]1CCCC[C@@H]1CCO`, the TGI in test [1], in test [2], in test [3], in test [4], in test [5] and in test [6] was greater than 100 µM each time. In addition, the TGI in [7], in test [8], in [9], in test [10], in test [11] and in [12] was greater than 100 µM throughout. The TGI in test [13], in test [14], in [15], in [16], in test [17] and in test [18] was greater than 100 µM each time. Moreover, the TGI in test [19] and in [20] was greater than 100 µM each time.

Take `CC(C)(C)N1C(=O)c2ccccc2C1(O)C(F)(F)F` (stereo not given): the TGI in test [1], in test [2], in [3], in [4], in [5] and in [6] was greater than 100 µM in each case. For the same molecule, the TGI in test [7], in test [8], in test [9], in [10], in [11] and in test [12] was greater than 100 µM each time. Besides, the TGI in [13], in test [14], in test [15], in [16], in [17] and in test [18] was greater than 100 µM in each case. Further, the TGI in [19] and in [20] was greater than 100 µM in each case.
